{"source": "paper PMC10636063", "about": "“Progesterone activation of β1-containing BK channels involves two binding sites” (Nature Communications, 2023)", "key": {"[1]": {"biological_target": "T1, BK β1 subunit (KCNMB1 product) (Rattus norvegicus, UniProt P97678)", "T1 construct": "FLAG (DYKDDDDK); made in house; host or cells: CHO cells, transient transfection, anti-flag immunoprecipitation", "T1 sequence (P97678 1-191)": "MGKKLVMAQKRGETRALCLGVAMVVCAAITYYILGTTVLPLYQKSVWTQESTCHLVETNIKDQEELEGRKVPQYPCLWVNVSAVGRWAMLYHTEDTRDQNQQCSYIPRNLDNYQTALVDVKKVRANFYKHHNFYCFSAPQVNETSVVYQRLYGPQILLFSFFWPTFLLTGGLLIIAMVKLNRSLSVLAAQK", "assay": "Thermal unfolding (microscale thermophoresis, Prometheus) of purified wt β1", "type": "binding", "details": "for effect on thermal unfolding / binding: vs DMSO", "description": "(§1) BK channel-forming slo1 cDNA (cbv1 isoform; AY330293) was cloned from rat cerebral artery SM cells, and inserted into pcDNA3.1 vector as described. BK β1 cDNA (KCNMB1 product; NP_011452; FJ154955) were isolated from rat cerebral artery SM cells and cloned as described. β4 cDNA (KCNMB4; NP_055320; AY028605) were generously provided by Dr. Ligia Toro. CHO cells were transiently transfected with cbv1 ± β1-, or β4-carrying pcDNA3.1 using X-tremeGENE HP (Sigma-Aldrich). Mutations to β1/4 cDNAs were conducted by Genscript, with sequences being confirmed to be >99% identical to KCNMB1 product; NP_011452 or β4 KCNMB4; NP_055320; respectively. β1/4 and mutant constructs were flag-tagged (DYKDDDDK-tag) by Genscript services for subsequent immunoprecipitation and use in microscale thermophoresis studies.\nWt β1, wt β4 and mutant constructs were purified by immunoprecipitation using Dynabeads Protein G Kit (10007D by Invitrogen) and following the manufacturer’s instructions. Rabbit polyclonal anti-flag antibody (10 µg; Abcam, Cat# ab205606, RRID:AB_2916341) was cross-linked with dynabeads. Transfected CHO cell lysate supernatant was divided into aliquots containing […] per column. Following precipitation, kit instructions for non-denaturing elutions were followed; one elution of 30 µl was collected for each column, and pH was adjusted to 7.5 using UltraPure 1 M Tris-HCI buffer pH 7.5 (cat# 15567027 by Fisher Scientific). PROG stock or vehicle control (DMSO) was added to the eluate to reach PROG final concentrations (0.004-40 µM), all dissolved within the same concentration of DMSO. Glass capillaries were prepared and loaded in triplicates into Prometheus (Nanotemper) and heated from 15° to 95 °C at a rate of 1°/min, the largest thermal scale available to run in the Nanotemper PR.therm-control software. The unfolding profile of a protein is a plot of its fluorescence signal against temperature. The protein is heated at a defined ramp over a specified temperature range. During the heating process, fluorescence is recorded at 330 and 350 nm. The resulting fluorescence ratio change is then analyzed for onset and inflection points. The temperature of onset and inflection is determined using built-in analysis function in Nanotemper PR.therm-control software. The onset of unfolding or aggregation is the temperature at which the channel conformation (unfolding or aggregation) process first starts. […] Onset and inflection points were validated by comparing the first-derivative variations between technical triplicates (high degrees of variations in the first derivative are shown in Supplementary Fig. 1b, c). CRC data obtained from microscale thermophoresis experiments were fitted to a Boltzmann function of the type: y=A1−A2/1+e^x−x0+A2 using Origin 2020 software (OriginLab; OriginLab Corporation)."}, "[2]": {"system": "β1-β4 chimera (loop of β4 with β1 TMs)", "assay": "Thermal unfolding (MST) of β1-β4 chimera", "type": "binding", "details": "0.004 μM", "description": "as §1\n(§2) Wt β1, wt β4 and mutant constructs were purified by immunoprecipitation using Dynabeads Protein G Kit (10007D by Invitrogen) and following the manufacturer’s instructions. […] The unfolding profile of a protein is a plot of its fluorescence signal against temperature. […] During the heating process, fluorescence is recorded at 330 and 350 nm. The resulting fluorescence ratio change is then analyzed for onset and inflection points. The temperature of onset and inflection is determined using built-in analysis function in Nanotemper PR.therm-control software. […]"}, "[3]": {"biological_target": "T2, cbv1+β1W163I (Rattus norvegicus, UniProt P97678, W163I)", "T2 construct": "made in house; host or cells: CHO cells, transient transfection; sucrose-gradient membrane preparation", "T2 sequence (P97678 whole entry W163I)": "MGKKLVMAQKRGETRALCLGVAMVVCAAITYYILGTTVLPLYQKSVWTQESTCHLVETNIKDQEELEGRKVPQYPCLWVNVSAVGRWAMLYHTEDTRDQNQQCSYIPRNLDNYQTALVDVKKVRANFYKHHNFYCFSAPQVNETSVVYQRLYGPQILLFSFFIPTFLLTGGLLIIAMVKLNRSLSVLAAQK", "T2 sequence (Q62976 1-1148 isoform Q62976-2 partner)": "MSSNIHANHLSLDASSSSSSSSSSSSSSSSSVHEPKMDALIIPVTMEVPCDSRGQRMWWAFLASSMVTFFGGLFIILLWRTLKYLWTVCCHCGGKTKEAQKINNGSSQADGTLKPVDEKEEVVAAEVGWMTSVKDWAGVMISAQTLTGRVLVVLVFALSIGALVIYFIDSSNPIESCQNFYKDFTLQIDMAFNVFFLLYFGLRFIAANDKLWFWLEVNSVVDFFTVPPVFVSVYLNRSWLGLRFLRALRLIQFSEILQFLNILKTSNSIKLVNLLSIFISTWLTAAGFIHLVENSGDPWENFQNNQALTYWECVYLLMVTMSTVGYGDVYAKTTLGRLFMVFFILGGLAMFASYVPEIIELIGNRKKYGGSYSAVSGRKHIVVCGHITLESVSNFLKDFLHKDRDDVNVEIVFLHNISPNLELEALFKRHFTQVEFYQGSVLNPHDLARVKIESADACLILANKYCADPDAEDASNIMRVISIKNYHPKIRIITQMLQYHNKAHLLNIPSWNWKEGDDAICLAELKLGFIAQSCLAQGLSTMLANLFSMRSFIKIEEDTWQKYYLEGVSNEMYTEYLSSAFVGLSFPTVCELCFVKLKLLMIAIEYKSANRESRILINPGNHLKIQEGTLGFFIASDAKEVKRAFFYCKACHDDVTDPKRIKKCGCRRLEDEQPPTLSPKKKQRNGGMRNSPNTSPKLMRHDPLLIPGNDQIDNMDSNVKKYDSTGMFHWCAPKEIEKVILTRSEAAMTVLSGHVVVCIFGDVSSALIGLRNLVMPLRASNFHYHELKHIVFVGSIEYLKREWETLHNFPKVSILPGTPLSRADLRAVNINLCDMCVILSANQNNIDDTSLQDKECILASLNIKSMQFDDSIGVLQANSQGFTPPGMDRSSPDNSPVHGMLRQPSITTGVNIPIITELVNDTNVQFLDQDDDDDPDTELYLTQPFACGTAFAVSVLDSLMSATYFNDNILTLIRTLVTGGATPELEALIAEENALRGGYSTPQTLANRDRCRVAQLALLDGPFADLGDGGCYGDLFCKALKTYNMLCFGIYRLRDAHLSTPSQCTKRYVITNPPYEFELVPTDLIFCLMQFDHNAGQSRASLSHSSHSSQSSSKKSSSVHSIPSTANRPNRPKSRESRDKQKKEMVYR", "assay": "Channel activity (NPo) in POPE/POPS bilayers, cbv1+β1W163I", "type": "biochemical", "details": "for normalized NPo, time course Fig 2E: W163I PROG", "description": "as §1\nProteins for electrophysiological recordings in artificial lipid bilayers remained untagged. Cells were transiently transfected as described above, pelleted and re-suspended on ice in 10 ml of buffer solution of the following composition (mM): 30 KCl, 2 MgCl2, 10 HEPES, 5 EGTA; pH 7.2. A membrane preparation was obtained using a sucrose gradient as described. Aliquots were stored at −80 °C. BK channel-mediated ionic current was recorded in planar lipid bilayers consisting of a POPE:POPS 3:1 (w/w) mixture. Lipid mixtures were dried under N2 and re-suspended in 25 mg/ml of n-decane BK currents following incorporation into horizontal bilayers at 300/30 mM cis/trans gradient as detailed elsewhere. Ion currents were obtained during a 10-min gap-free recording at 0 mV in the presence of 0.01, 10 μM PROG, 10 μM PROG-oxime, or vehicle control (dimethyl sulfoxide; DMSO). Currents were obtained in gap-free mode using a Warner BC-525D amplifier, low pass-filtered at 1 kHz and sampled at 5 kHz with Digidata 1550B/pCLAMP 11 (Molecular Devices). For comparison with previous data from us[16],[17],[45]–[47], studies were conducted at 20–22 °C. PROG stock, oxime stock or vehicle control (DMSO) was added to the bilayer cis chamber to reach final concentrations (0.01–10 µM), with all compounds being dissolved with the same concentration of DMSO (0.1%); n = 5–10 for each group.\nPatch-clamp and bilayer data were analyzed using Clampfit 10.7 software (Molecular Devices). NPo was used as an index of channel steady-state activity where N = number of channels in the patch (defined as a maximal number of opening levels at Po≤1) and Po=single channel open probability. Drug-induced NPo changes were determined by comparing baseline NPo (i.e., NPo with the patch/cell perfused with bath solution) to the NPo from the same patch/cell exposed to the agent under study (DMSO/PROG/oxime) dissolved in bath solution. NPo and mean open time values were automatically calculated using Clampfit 10.7, the latter using a 50% threshold detection event."}, "[4]": {"biological_target": "T3, β1W87F (Rattus norvegicus, UniProt P97678, W87F)", "T3 construct": "FLAG (DYKDDDDK); made in house; host or cells: CHO cells, transient transfection, anti-flag immunoprecipitation", "T3 sequence (P97678 whole entry W87F)": "as the sequence (P97678 whole entry W163I) above, with W87F, I163W counted along it", "assay": "Thermal unfolding (MST) of β1W87F", "type": "binding", "details": "0.004 and 4.1 µM", "description": "as §1, §2"}, "[5]": {"details": "Δ onset to inflection vs concentration"}}, "note": "“And” between values parts separate entries of the source, which are not always exact repeats. Equal entries are not always repeated. Where two headings read alike, the source gives them in different places."}
{"smiles": "CC(=O)[C@H]1CC[C@H]2[C@@H]3CCC4=CC(=O)CC[C@]4(C)[C@H]3CC[C@]12C", "note": "[PROG, Progesterone]", "values": [{"measurement": "concentrations optimal to bind β1 as determined by MST", "setting": "[1]", "value": "4 to 10", "unit": "µM"}, {"measurement": "delta (Δ) of onset to inflection point", "setting": "[1]; 0.004 µM PROG, individual records (Fig 1B)", "value": "5.26 and 13.2518 and 6.093 and 5.155 and 14.4223 and 5.701 and 4.973 and 10.2833 and 5.781 and 6.3298 and 7.116"}, {"measurement": "delta (Δ) of onset to inflection point", "setting": "[1]; 0.04 µM PROG, individual records (Fig 1B)", "value": "5.943 and 2.008 and 8.93 and 4.708 and 3.29 and 2.039 and 5.415 and 2.123 and 6.078 and 9.405 and 14.8911 and 5.538"}, {"measurement": "delta (Δ) of onset to inflection point", "setting": "[1]; 0.4 µM PROG, individual records (Fig 1B)", "value": "3.821 and 6.41 and 2.29 and 0.9082 and 1.393 and 3.976 and 4.647 and 6.669 and 3.779 and 6.772"}, {"measurement": "delta (Δ) of onset to inflection point", "setting": "[1]; 1.3 µM PROG, individual records (Fig 1B)", "value": "10.9265 and 4.989 and 3.478 and 3.054 and 2.195 and 4.0816"}, {"measurement": "delta (Δ) of onset to inflection point", "setting": "[1]; 4 µM PROG, individual records (Fig 1B)", "value": "4.355 and 17.5013 and 19.981 and 4.864 and 5.088 and 8.156 and 15.523 and 3.088 and 7.882 and 12.3542 and 0.9184 and 8.919 and 6.947 and 9.668"}, {"measurement": "delta (Δ) of onset to inflection point", "setting": "[1]; 10 µM PROG, individual records (Fig 1B)", "value": "12.73 and 36.72 and 4.56 and 4.587 and 4.664 and 11.45 and 5.307 and 5.645 and 4.368 and 3.818"}, {"measurement": "delta (Δ) of onset to inflection point", "setting": "[1]; 10 μM PROG, individual records (Fig 1C, SFig1A)", "value": "9.668 and 4.355 and 17.5013 and 19.981 and 4.864 and 5.088 and 8.156 and 15.523 and 3.088 and 7.882 and 12.3542 and 0.9184 and 8.919 and 6.947"}, {"measurement": "delta (Δ) of onset to inflection point", "setting": "[1]; 40 µM PROG, individual records (Fig 1B)", "value": "6.851 and 14.1513 and 13.0079 and 8.574 and 9.969 and 3.1593 and 5.59 and 5.656"}, {"measurement": "effect on thermal unfolding / binding", "setting": "[1]", "value": "decreases the difference in delta between the onset inflection events"}, {"measurement": "high-affinity binding process: concentration at maximum", "setting": "[1]; [5]", "value": "0.4 to 1", "unit": "µM"}, {"measurement": "low-affinity binding process: concentration at maximum", "setting": "[1]; [5]", "value": 10, "unit": "µM"}, {"measurement": "EC50", "setting": "[1]; Δ onset to inflection vs concentration, read-out: high-affinity binding process: 50% value", "value": 40, "unit": "nM"}, {"measurement": "EC50", "setting": "[1]; Δ onset to inflection vs concentration, read-out: low-affinity binding process: 50% value", "value": "~2200", "unit": "nM"}, {"measurement": "effect on thermal unfolding / binding", "setting": "[2]", "value": "still bound and destabilized the protein structure"}, {"measurement": "action on channel activity (NPo)", "setting": "[3]; 10 µM, vs DMSO", "value": "effectively abolished PROG action"}, {"measurement": "normalized NPo, time course Fig 2E", "setting": "[3]; time 1 min (normalisation reference)", "value": 1}, {"measurement": "normalized NPo, time course Fig 2E", "setting": "[3]; time 2 min", "value": "0.8408 and 0.8822 and 1.039 and 0.6048 and 0.9835"}, {"measurement": "normalized NPo, time course Fig 2E", "setting": "[3]; time 6 min", "value": "0.9156 and 1.236 and 1.01 and 0.7339 and 0.9865"}, {"measurement": "normalized NPo, time course Fig 2E", "setting": "[3]; time 7 min", "value": "1.033 and 1.222 and 0.6583 and 1.166"}, {"measurement": "normalized NPo, time course Fig 2E", "setting": "[3]; time 8 min", "value": "0.9156 and 0.8317 and 0.9282 and 1.117"}, {"measurement": "normalized NPo, time course Fig 2E", "setting": "[3]; time 9 min", "value": "1.0966 and 0.7071 and 0.5738 and 1.067"}, {"measurement": "normalized NPo, time course Fig 2E", "setting": "[3]; time 10 min", "value": "1.291 and 0.8215 and 0.6728 and 1.157"}, {"measurement": "effect on thermal unfolding / binding", "setting": "[4]", "value": "loss of PROG binding"}]}
{"smiles": "CC(=O)C1CCC2C3CCC4=CC(=NOCC(=O)O)CCC4(C)C3CCC12C", "note": "(stereo not shown) [PROG-oxime, progesterone 3-(O-carboxymethyl)oxime]", "values": [{"measurement": "effect on thermal unfolding / binding", "setting": "[1]", "value": "actual binding to wt β1"}]}
